Experimental data reported in patent US20240173344A1, “USE OF GABAA RECEPTOR AS TARGET IN PREPARATION OR SCREENING OF DRUG FOR LOWERING BLOOD LIPID LEVEL, TREATING OBESITY, AND/OR IMPROVING METABOLISM” (SHANGHAI INSTITUTE OF ENDOCRINE AND METABOLIC DISEASES, priority 2022, published 2024).
Several values for one entry are separate records, joined by “and”; a condition that tells them apart may be missing. Equal entries are not always repeated.

System: neurons in the DMV
Experiment: Chemogenetic (DREADDs) inhibition of DMV neurons by CNO in obese mice: body weight, blood lipid, fecal TG, jejunal TG
Assay type: in vivo, C57BL/6J mice
Conditions: single mice and mean; for Blood lipid level: Inhibition group (hM4D(Gi) virus + CNO i.p. 7 d)
From the text: In the present disclosure, the mice were fed with a high-fat diet in which a mass percentage of fat was 60% for 12 weeks, and when a body weight reached 35 g or more, animal models of alimentary obesity were successfully constructed. At a formal stage of the experiment (starting on day 0 in FIG. 1A, FIG. 3A, FIG. 6A, and FIG. 7A), the mice were raised in single cages, during which a daily food intake of each mouse model was accurately recorded, the feces was collected before and after drug intervention, and a daily body weight curve was recorded.
The chemogenetic approach designer receptors exclusively activated by designer drugs (DREADDs) is a research method that controls neuronal excitability in a specific brain region in an animal model, where a downstream signaling pathway of a specific exogenous ligand clozapine N-oxide (CNO) is activated through an adeno-associated virus (AAV) modified by a G protein-coupled receptor (GPCR) to cause a change in neuronal excitability. […]
Four weeks after recovery from surgery, mice in the chemogenetic inhibition group and the control group each were intraperitoneally injected with CNO (Catalog No. BML-NS105, Enzo Life Sciences, USA) at a dose of 1.0 mg/kg BW every day to inhibit the neuronal activity of the DMV, and the daily food intake and body weight were measured and the feces was collected for the mice. The mice were sacrificed after being continuously injected with CNO for 7 d to inhibit the DMV, mouse tissue samples were collected, and physiological and metabolic indexes were detected and analyzed.
A method for determining TG in a sample was as follows: 20 mg to 30 mg of a sample was first weighed, a 5% NP40-containing lysis buffer was added, and a resulting mixture was homogenated and incubated in a metal bath at 95° C. for 5 min, which was repeated twice. […] 2 μl of the supernatant was added to each well, and after a chromogenic reaction was completed, a value of each well was determined by a microplate reader. […]

In the case of `C[N+]1([O-])CCN(C2=Nc3cc(Cl)ccc3Nc3ccccc32)CC1` [CNO, clozapine N-oxide], the Blood lipid level is reported as 0.7414 mM and 0.9111 mM and 0.6521 mM and 0.4645 mM and 0.8754 mM and 0.6342 mM and 0.7146 mM, the Blood lipid level (mean) is reported as 0.7169 mM and the “Body weight curve change percentage” value (Inhibition group (hM4D(Gi) virus in DMV, CNO 1.0 mg/kg BW i.p. daily), Day 0 baseline) is reported as 0.00%.
